# Test results from BindingDB's records for doi:10.1021/jm9705723 (Wayne State University School of Medicine, 1998).
# Experiments:
# [1] = Inhibitory concentration against human immunodeficiency virus type 1 (HIV-1 strain IIIB RT) reverse transcriptase was determined by triplicate assay at high (~1 pfu/cell) multiplicity of […] (moi)
# [2] = Inhibitory concentration against human immunodeficiency virus type 1 (HIV-1 strain IIIB RT) reverse transcriptase was determined by triplicate assay at low (~0.1 pfu/cell) multiplicity of […] (moi)
Structure (SMILES),IC50 [1],IC50 [2]
"Cc1cn([C@H]2C[C@H](N=[N+]=[N-])[C@@H](CO)O2)c(=O)[nH]c1=O [1-((2R,4S,5S)-4-Azido-5-hydroxymethyl-tetrahydro-furan-2-yl)-5-methyl-1H-pyrimidine-2,4-dione]",0.017 µM,0.003 µM
Nc1ncnc2c1ncn2/C=C1/CC1CO (stereo unspecified) [[2-(6-Amino-purin-9-ylmethylene)-cyclopropyl]-methanol],20 µM,0.8 µM
Nc1ncnc2c1ncn2/C=C1\CC1CO (stereo unspecified) [{2-[1-(6-Amino-purin-9-yl)-meth-(E)-ylidene]-cyclopropyl}-methanol],> 100 µM,14 µM

# Results, then the compound that gave them:
IC50 [1],IC50 [2],Structure (SMILES)
> 30 µM,1.9 µM,"Nc1nc2c(ncn2/C=C2\CC2CO)c(=O)[nH]1 (stereo unspecified) [2-Amino-9-[2-hydroxymethyl-cycloprop-(E)-ylidenemethyl]-1,9-dihydro-purin-6-one]"
> 30 µM,1.1 µM,"Nc1nc2c(ncn2/C=C2/CC2CO)c(=O)[nH]1 (stereo unspecified) [2-Amino-9-[2-hydroxymethyl-cycloprop-(Z)-ylidenemethyl]-1,9-dihydro-purin-6-one]"
,> 100 µM,Nc1nc(Cl)c2ncn(/C=C3\CC3CO)c2n1 (stereo unspecified) [{2-[1-(2-Amino-6-chloro-purin-9-yl)-meth-(E)-ylidene]-cyclopropyl}-methanol]
